Consider 64 molecules from patent US12577217B2, “15-PGDH inhibitor” (KYORIN Pharmaceutical Co., Ltd., priority 2019, dated 2026).

Molecules are shown by their SMILES. Some results are limits rather than exact numbers.

In the assay the target is T1, recombinant human 15-PGDH (Homo sapiens, UniProt P15428).
T1 construct: purchased R&D Systems
T1 sequence (P15428 1-266): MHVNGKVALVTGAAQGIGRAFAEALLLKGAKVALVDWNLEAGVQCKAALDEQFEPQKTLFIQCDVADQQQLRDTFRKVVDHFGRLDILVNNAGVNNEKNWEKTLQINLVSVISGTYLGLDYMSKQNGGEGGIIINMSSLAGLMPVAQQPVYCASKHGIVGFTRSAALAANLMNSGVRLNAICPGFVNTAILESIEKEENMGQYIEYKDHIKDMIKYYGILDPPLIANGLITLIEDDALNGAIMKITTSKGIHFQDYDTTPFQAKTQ
Nature of the assay: 15-PGDH enzyme inhibition test. In kind it is biochemical. Particulars: 4 nM recombinant human 15-PGDH, 30 μM PGE2, 1 mM NAD+, 60 minutes after starting the reaction; read-out: IC50 Value. Here is the method: 15-PGDH Enzyme Inhibition Test
A test compound and 4 nM recombinant human 15-PGDH (R&D Systems) were added, in 50 mM Tris-HCl (pH 8.0) containing 0.01% TWEEN 20 (Sigma) and 0.01% bovine gamma globulin (Sigma), to a 384-well Flat Bottom Black plate (Corning, 3820), and the resultant was allowed to stand still at room temperature for 12 minutes, and 30 μM PGE2 (Cayman Chemical) and 1 mM NAD+ (Sigma) were added thereto to start the reaction. 60 minutes after starting the reaction, measurement was performed using Synergy 2 (BioTeck) at an excitation wavelength of 340 nm and a fluorescence wavelength of 440 nm. Assuming that a fluorescence signal obtained with an assay buffer added instead of the test compound and NAD+ was 100% and that a signal obtained with NAD+ added was 0%, a concentration corresponding to 50% inhibition plotted on a concentration-reaction curve of the test compound was defined as an IC50 value. Incidentally, in the following tables, an IC50 value smaller than 10 nM was shown as +++, an IC50 value equal to or larger than 10 nM and smaller than 100 nM was shown as ++, and an IC50 value equal to or larger than 100 nM was shown as +.

`Cn1nc2cc(N3CCCOc4cc(C(=O)N5CCCCC5)cnc43)ccn2c1=O` [Example 1-99]: the IC50 (in general, the concentration at which inhibition is half-maximal) was less than 10 nM.

Turning to `COc1c(C(=O)N2CCCCC2)ccc2c1OCCN2c1ccn2c(=O)n(C)nc2c1` [Example 1-100], the IC50 was less than 10 nM.

`CN1Cc2cc(N3CCOc4cc(C(=O)N5CCCCC5)cnc43)cnc2C1=O` [Example 1-101]: the IC50 is less than 10 nM.

Regarding `CN1Cc2nc(N3CCOc4cc(C(=O)N5CCCCC5)cnc43)ccc2C1=O` [Example 1-102], the IC50 lay in the range of 10 to 100 nM.

Turning to `CN1Cc2cc(N3CCOc4cc(C(=O)N5CCCCC5)cnc43)ncc2C1=O` [Example 1-103], the IC50 was less than 10 nM.

In the case of `O=C(c1cnc2c(c1)OCCN2c1ccn2nnnc2c1)N1CCCCC1` [Example 1-104], the IC50 was less than 10 nM.

As for `O=C(c1cnc2c(c1)OCCN2c1ccn2cnnc2c1)N1CCCCC1` [Example 1-105], the IC50 was less than 10 nM.

As for `O=C(c1cnc2c(c1)OCCN2c1ccn2ncnc2c1)N1CCCCC1` [Example 1-106], the IC50 was less than 10 nM.

Take `Cn1nc2cc(N3CCCCc4cc(C(=O)N5CCCCC5)cnc43)ccn2c1=O` [Example 1-107]: the IC50 was less than 10 nM.

In the case of `Cn1nc2cc(N3CCOCc4cc(C(=O)N5CCCCC5)cnc43)ccn2c1=O` [Example 1-108], the IC50 was in the range of 10 to 100 nM.

As to `Cn1nc2cc(N3CCc4cc(C(=O)N5CCCCC5)cnc43)ccn2c1=O` [Example 1-109], the IC50 was less than 10 nM.

With `Cn1nc2cc(N3CCOc4cc(SC5CCCCC5)cnc43)ccn2c1=O` [Example 1-110], the IC50 is less than 10 nM.

Take `Cn1nc2cc(N3CCOc4cc(C(=O)C5CCCCC5)cnc43)ccn2c1=O` [Example 1-111]: the IC50 is less than 10 nM.

In the case of `Cn1nc2cc(N3CCCc4cc(C(=O)N5CCC[C@H](CF)C5)cnc43)ccn2c1=O` [Example 1-112], the IC50 is less than 10 nM.

For the molecule `CCn1nc2cc(N3CCCc4cc(C(=O)N5CCC[C@H](CF)C5)cnc43)ccn2c1=O` [Example 1-113], the IC50 was less than 10 nM.

In the case of `COCn1nc2cc(N3CCCc4cc(C(=O)N5CCC[C@H](CF)C5)cnc43)ccn2c1=O` [Example 1-114], the IC50 is less than 10 nM.

On to `CCOCn1nc2cc(N3CCCc4cc(C(=O)N5CCC[C@H](CF)C5)cnc43)ccn2c1=O` [Example 1-115], for which the IC50 was less than 10 nM.

For `COCCn1nc2cc(N3CCCc4cc(C(=O)N5CCC[C@H](CF)C5)cnc43)ccn2c1=O` [Example 1-116], the IC50 was less than 10 nM.

As for `CCOCCn1nc2cc(N3CCCc4cc(C(=O)N5CCC[C@H](CF)C5)cnc43)ccn2c1=O` [Example 1-117], the IC50 was less than 10 nM.

`COCCOCCn1nc2cc(N3CCCc4cc(C(=O)N5CCC[C@H](CF)C5)cnc43)ccn2c1=O` [Example 1-118]: the IC50 was less than 10 nM.

On to `Cn1nc2cc(N3CCCc4cc(C(=O)N5CCC[C@@H](CF)C5)cnc43)ccn2c1=O` [Example 1-119], for which the IC50 is less than 10 nM.

Take `CCn1nc2cc(N3CCCc4cc(C(=O)N5CCC[C@@H](CF)C5)cnc43)ccn2c1=O` [Example 1-120]: the IC50 was less than 10 nM.

Consider `COCn1nc2cc(N3CCCc4cc(C(=O)N5CCC[C@@H](CF)C5)cnc43)ccn2c1=O` [Example 1-121], for which the IC50 was less than 10 nM.

`CCOCn1nc2cc(N3CCCc4cc(C(=O)N5CCC[C@@H](CF)C5)cnc43)ccn2c1=O` [Example 1-122]: the IC50 was less than 10 nM.

With `COCCn1nc2cc(N3CCCc4cc(C(=O)N5CCC[C@@H](CF)C5)cnc43)ccn2c1=O` [Example 1-123], the IC50 was less than 10 nM.

As for `CCOCCn1nc2cc(N3CCCc4cc(C(=O)N5CCC[C@@H](CF)C5)cnc43)ccn2c1=O` [Example 1-124], the IC50 is less than 10 nM.

Regarding `COCCOCCn1nc2cc(N3CCCc4cc(C(=O)N5CCC[C@@H](CF)C5)cnc43)ccn2c1=O` [Example 1-125], the IC50 is less than 10 nM.

Turning to `CCN1Cc2cc(N3CCCc4cc(C(=O)N5CCC(F)(F)CC5)cnc43)ccc2C1=O` [Example 1-126], the IC50 was less than 10 nM.

For `CN1Cc2cc(N3CCOc4cc(C(=O)N5CCC(F)(F)CC5)cnc43)ccc2C1=O` [Example 1-127], the IC50 was less than 10 nM.

For the molecule `O=C(c1cnc2c(c1)OCCN2c1ccc2c(=O)[nH]ccc2c1)N1CCC(F)(F)CC1` [Example 1-128], the IC50 was less than 10 nM.

Turning to `Cn1nc2cc(N3CCCc4cc(C(=O)N5CCC(F)(F)CC5)cnc43)ccn2c1=O` [Example 1-129], the IC50 was less than 10 nM.

For the molecule `Cn1nc2cc(N3CCCc4cc(C(=O)N5CCCCC5)ccc43)ccn2c1=O` [Example 1-130], the IC50 is less than 10 nM.

With `COC(=O)c1ccc(N2CCCc3cc(C(=O)N4CCCCC4)ccc32)cc1` [Example 1-131], the IC50 was less than 10 nM.

Regarding `Cn1nc2cc(N3CCOc4cc(C(=O)C5CCC(F)(F)CC5)cnc43)ccn2c1=O` [Example 1-132], the IC50 was less than 10 nM.

In the case of `CN1Cc2cc(N3CCOc4cc(C(=O)C5CCC(F)(F)CC5)cnc43)ccc2C1=O` [Example 1-133], the IC50 was less than 10 nM.

Take `CN1Cc2cc(N3CCOc4cc(C(=O)C5CCCCC5)cnc43)ccc2C1=O` [Example 1-134]: the IC50 is less than 10 nM.

With `Cn1nc2cc(N3CCCc4cc(SC5CCCCC5)cnc43)ccn2c1=O` [Example 1-135], the IC50 lay in the range of 10 to 100 nM.

For `CN1Cc2cc(N3CCOc4cc(SC5CCCCC5)cnc43)ccc2C1=O` [Example 1-136], the IC50 was in the range of 10 to 100 nM.

With `COC(=O)c1ccccc1N1CCOc2cc(C(=O)N3CCCCC3)ccc21` [Example 1-137], the concentration for half-maximal inhibition (IC50) is greater than 100 nM.

For the molecule `COC(=O)c1ccccc1N1CCc2cc(C(=O)N3CCCCC3)ccc21` [Example 1-138], the IC50 was greater than 100 nM.

On to `COC(=O)c1cccc(N2CCc3cc(C(=O)N4CCCCC4)ccc32)c1` [Example 1-139], for which the IC50 is less than 10 nM.

`COC(=O)c1ccc(N2CCc3cc(C(=O)N4CCCCC4)ccc32)cc1` [Example 1-140]: the IC50 is less than 10 nM.

On to `Cn1nc2cc(N3CCc4cc(C(=O)N5CCCCC5)ccc43)ccn2c1=O` [Example 1-141], for which the IC50 was less than 10 nM.

Turning to `O=C(c1cnc2c(c1)CCCN2c1ccn2c(=O)[nH]nc2c1)N1CCC[C@H](CF)C1` [Example 1-145], the IC50 was less than 10 nM.

In the case of `O=C(c1cnc2c(c1)CCCN2c1ccn2c(=O)[nH]nc2c1)N1CCC[C@@H](CF)C1` [Example 1-146], the IC50 was less than 10 nM.

`Cn1nc2cc(N3CCOc4cc(C(=O)N5CCC(F)(F)CC5)ccc43)ccn2c1=O` [Example 1-147]: the IC50 is less than 10 nM.

Take `O=C(c1ccc2c(c1)OCCN2c1ccn2c(=O)[nH]nc2c1)N1CCC(F)(F)CC1` [Example 1-148]: the IC50 was less than 10 nM.

Consider `CN1Cc2cc(N3CCOc4cc(C(=O)N5CCC(F)(F)CC5)ccc43)ccc2C1=O` [Example 1-149], for which the half-inhibitory concentration (IC50) was less than 10 nM.

For the molecule `COc1ccc(CN2Cc3cc(N4CCOc5cc(C(=O)N6CCC(F)(F)CC6)ccc54)ccc3C2=O)c(OC)c1` [Example 1-150], the IC50 was less than 10 nM.

In the case of `CN1Cc2cc(N3CCOc4cc(C(=O)N5CCC(F)(F)CC5)ccc43)ncc2C1=O` [Example 1-151], the IC50 was less than 10 nM.

Turning to `O=C(c1ccc2c(c1)OCCN2c1ccc2c(=O)[nH]cnc2c1)N1CCC(F)(F)CC1` [Example 1-152], the IC50 is less than 10 nM.

Regarding `Cn1cnc2cc(N3CCOc4cc(C(=O)N5CCC(F)(F)CC5)ccc43)ccc2c1=O` [Example 1-153], the IC50 is less than 10 nM.

For the molecule `COCn1nc2cc(N3CCOc4cc(C(=O)N5CCC(F)(F)CC5)ccc43)ccn2c1=O` [Example 1-154], the IC50 is less than 10 nM.

As for `O=C(c1cnc2c(c1)CCCN2c1ccc2c(=O)[nH]cnc2c1)N1CCCCC1` [Example 1-155], the IC50 is less than 10 nM.

For the molecule `N#Cc1ccc(N2CCOc3cc(C(=O)N4CCCCC4)ccc32)cc1` [Example 1-157], the IC50 is less than 10 nM.

With `CS(=O)(=O)NCc1ccc(N2CCOc3cc(C(=O)N4CCCCC4)ccc32)cc1` [Example 1-160], the IC50 was less than 10 nM.

In the case of `CS(=O)(=O)CCc1ccc(N2CCOc3cc(C(=O)N4CCCCC4)ccc32)cc1` [Example 1-161], the IC50 was less than 10 nM.

Turning to `CS(=O)(=O)Cc1ccc(N2CCOc3cc(C(=O)N4CCCCC4)ccc32)cc1` [Example 1-162], the IC50 is less than 10 nM.

With `Cn1cnc2cc(N3CCOc4cc(C(=O)N5CCCCC5)cnc43)ccc2c1=O` [Example 1-163], the IC50 is less than 10 nM.

With `CN1C(=O)c2cc(N3CCOc4cc(C(=O)N5CCCCC5)cnc43)ccc2S1(=O)=O` [Example 1-164], the IC50 was 10 to 100 nM.

Consider `CN1C(=O)c2ccc(N3CCOc4cc(C(=O)N5CCCCC5)cnc43)cc2S1(=O)=O` [Example 1-165], for which the IC50 was less than 10 nM.

On to `CN1C(=O)c2ccc(N3CCOc4cc(C(=O)N5CCCCC5)cnc43)cc2C1=O` [Example 1-166], for which the IC50 is less than 10 nM.

Take `O=C(c1cnc2c(c1)OCCN2c1ccc2c(c1)C(C1CC1)=NS2(=O)=O)N1CCCCC1` [Example 1-167]: the IC50 fell in the range of 10 to 100 nM.

Take `O=C(c1cnc2c(c1)CCCN2c1cc2c(cn1)C(=O)N(CC1COC1)C2)N1CCCCC1` [Example 1-168]: the IC50 was in the range of 10 to 100 nM.
